According to patent EP1263420B1 (priority 2000, dated 2001):
“And” between values parts separate entries of the source, which are not always exact repeats. Equal values may be shown once.

How the values were obtained:
[1] = tested on: TGase II; assay: TGase II assay of rat lung tissue after inhaled 13-cis RA (experiment B); format: in vivo; details: for TGase II assay / TGase II assay DPM/µg protein: rat lung
Procedure: Male rats (n=23) (Sprague-Dawley from Charles River) were divided into six experimental groups and were given varying amounts of 13-cis RA through an inhalant apparatus once daily for different times each day for 14 days. The experimental groups were as follows (Table 1) :1.Vehicle control : rats (3) inhaled vehicle for 240 minutes; 2. Low dose 13-cis RA: rats (4) inhaled a solution containing 13-cis RA at a concentration of 62.2µg/liter (inhaled dose 115.0µg/kg body weight) in 5 minutes; 3. Low-Middle dose 13-cis RA : rats (4) inhaled a solution containing 13-cis RA at a concentration of 62.2µg/liter (inhaled dose 334.4µg/kg body weight) in 15 minutes; 4.Middle dose 13-cis RA: rats (4) inhaled a solution containing 13-cis RA at a concentration of 62.2µg/liter (inhaled dose 1012.3µg/kg body weight) in 45 minutes; 5. Middle-High dose 13-cis RA : rats (4) inhaled a solution containing 13-cis RA at a concentration of 62.2µg/liter (inhaled dose 2843.4µg/kg body weight) in 120 minutes; 6. High dose 13-cis RA : rats (4) inhaled a solution containing 13-cis RA at a concentration of 62.2µg/liter (inhaled dose 5935.6µg/kg body weight) in 240 minutes. […]
Enzyme assay mixtures were prepared by adding 80µl of SUBSTRATE mixture (322.8µl H2O, 120µl 0.5M NaBorate, 60µl 0.01M EDTA, 60µl 0.1M CaCl2, 6µl 1M DTT, 240µl dimethyl casein, 30µl Triton X-100, 1.2µl [^3H]-Putrescine, 120µl Putrescine) to 20µl sample, 20µl scraping buffer for blank control , 20 µl (18µl scraping buffer + 2µl TGase II) for positive control. Samples were mixed in 15ml tubes, the tubes were shaken before putting them into a 28°C water bath for 30 minutes. Reactions were slowed down in an ice bath. 80µl of the incubation mixture was adsorbed onto paper disks. These were immediately dropped into cold 10% TCA (0.1% Putrescine) and washed with agitation for 7 minutes, followed by 2 additional washes with 5% TCA (0.05% putrescine) for 5~7 minutes, and once more with cold (-20°C) 95% ethanol for 5 minutes. Paper disks were dried and placed into 5ml Aquasol, and counted in a Liquid Scintillation Counter. Protein concentration determination was conducted by the Bradford method.

[2] = tested on: RARα; assay: RAR induction in lung of A/J mice exposed to isotretinoin aerosols (Western blot); format: in vivo; details: inhaled mid dose isotretinoin, urethane-treated A/J mice, relative to vehicle-exposed
Procedure: (§1) Antibodies: Polyclonal antibodies to RARα, β and γ (Santa Cruz Biotechnology Inc., San Francisco, CA) were used with a BM Chemiluminescence Western Blotting Kit (Mouse/Rabbit) (Boehringer Mannheim Corporation, Indianapolis).
(§2) Experimental Design: Five lungs each from the urethane-treated vehicle, low dose, and mid dose animals were snap frozen in liquid nitrogen and stored at -70°C for determination of RARs α, β and γ by Western Blot Analysis. In addition, five lungs each from urethane-injected unexposed mice, and untreated control mice were designated for Westerns. The lungs were homogenized and the RARs were determined by standard Western Blotting (21, 22). Due to deaths early in the high dose experiment, no lungs were available for Western Blot Analysis for the high dose exposures, i.e. all tissue was used for lesion quantitation purposes.
(§3) Samples: Lung tissue was collected, frozen on dry ice and kept at -70°C until used. A 500 mg portion was diced in small pieces and homogenized in 300 µl of cold PBS using a hand held homogenizer for 2-3 min. Samples were centrifuged at 500 rpm for 5 min or until the supernatant was clear. The pellet was suspended in 400 µl of cold Buffer A [2 µl 0.5 M EDTA, 10 µl 1 mM EGTA, 50 µl 100 mM PMSF, 10 µl 1M DTT, 10 ml (10 mM HEPES pH 7.9 + 10 mM KCl)], and left at ice temperature for 15 min. A 25 µl volume of 10% solution of NP-40 was added and the samples were mixed in a vortex vigorously for 10 sec. Samples were centrifuged at 14,000 rpm for 1 min at 4°C and the pellet was treated once more in this fashion. The supernatant was removed and 25 - 100 µl of Buffer C [4 µl 0.5 M EDTA, 20 µl 100 mM EGTA, 20 µl 0.1 M PMSF, 2 µl 1 M DTT, 2 ml (20 mM HEPES pH 7.9 + 0.4M NaCl)] was added. Pellets were resuspended by tapping gently on the bottom of the Eppendorf tube. Samples were rocked vigorously in a bucket of ice on an orbitor shaker for 30 min. Samples were centrifuged at 14,000 rpm for 5 min at 4°C. Supematants were kept frozen at -70°C until needed. Protein concentration determination was conducted by the Bradford method (23). […]

[3] = tested on: RARγ; assay: as above; format: in vivo; details: inhaled mid dose isotretinoin, urethane-treated A/J mice, relative to vehicle-exposed
Procedure: as §1, §2, §3

[4] = tested on: RARβ; assay: as above; format: in vivo; details: inhaled mid dose isotretinoin, urethane-treated A/J mice, relative to vehicle-exposed
Procedure: as §1, §2, §3

[5] = tested on: RARs; assay: RAR induction in lung of A/J mice exposed to isotretinoin aerosols, all three RARs; format: in vivo; details: lungs exposed to mid levels of isotretinoin, urethane-treated mice
Procedure: as §1, §2
Samples: Lung tissue was collected, frozen on dry ice and kept at -70°C until used. A 500 mg portion was diced in small pieces and homogenized in 300 µl of cold PBS using a hand held homogenizer for 2-3 min. Samples were centrifuged at 500 rpm for 5 min or until the supernatant was clear. The pellet was suspended in 400 µl of cold Buffer A [2 µl 0.5 M EDTA, 10 µl 1 mM EGTA, 50 µl 100 mM PMSF, 10 µl 1M DTT, 10 ml (10 mM HEPES pH 7.9 + 10 mM KCl)], and left at ice temperature for 15 min. […]

[6] = tested on: lung metaplasia; details: Oral doses of I mg/kg, smokers; cited from earlier work
[7] = High: 240 minutes daily 14 Days, 1872µg/kg total deposited dose
[8] = Low-Middle: 15 minutes daily 14 Days, 117µg/kg total deposited dose
[9] = Middle-High: 120 minutes daily 14 Days, 936µg/kg total deposited dose
[10] = Middle: 45 minutes daily 14 Days, 351µg/kg total deposited dose

## CC1=C(/C=C/C(C)=C/C=C/C(C)=C\C(=O)O)C(C)(C)CCC1 [13-cis RA, 13-cis-Retinoic Acid]
[1]; maximum, inhaled dose of 1012.3µg/kg, 45 minutes of inhalation, 14 days
  stimulation of lung TGase II activity: 2.9 Fold
[1]; [7]
  TGase II assay: 0.1025 +/- 0.004 picomoles/µg protein/30 min and 0.1025 ± 0.004 picomoles/µg protein/30 min
  TGase II assay DPM/µg protein: 8053 DPM/µg protein
[1]; [8]
  TGase II assay: 0.1150 +/- 0.006 picomoles/µg protein/30 min and 0.1150 ± 0.006 picomoles/µg protein/30 min
  TGase II assay DPM/µg protein: 9035 DPM/µg protein
[1]; Low: 5 minutes daily 14 Days, 39µg/kg total deposited dose
  TGase II assay DPM/µg protein: 7503 DPM/µg protein
[1]; Low: 5 minutes daily 14 Days, 39µg/kg total deposited dose, vehicle 0.0450
  TGase II assay: 0.0955 +/- 0.004 picomoles/µg protein/30 min and 0.0955 ± 0.004 picomoles/µg protein/30 min
[1]; [9]
  TGase II assay: 0.1020 +/- 0.005 picomoles/µg protein/30 min and 0.1020 ± 0.005 picomoles/µg protein/30 min
  TGase II assay DPM/µg protein: 8014 DPM/µg protein
[1]; [10]
  TGase II assay: 0.1330 +/- 0.009 picomoles/µg protein/30 min
  TGase II assay DPM/µg protein: 10449 DPM/µg protein
[1]; with larger amounts of inhaled retinoid
  stimulation of lung TGase II activity: 1.2 fold
[2]
  upregulated lung tissue RAR α over solvent: 3.9 fold
[3]
  upregulated lung tissue RAR γ over solvent: 3.7 fold
[4]
  upregulated lung tissue RAR β over solvent: 3.3 fold
[5]
  induction of all three RARs: at least three fold
[6]
  reversal of lung metaplasia: failed even to reverse lung metaplasia
